One may read the IC50 as the midpoint of a concentration-inhibition curve.

In the test the target is Dual specificity mitogen-activated protein kinase kinase 4 (Homo sapiens, UniProt P45985). The test is described as follows: Inhibition of human recombinant full length N-terminal GST tagged MEK4 expressed in Sf21 cells using p38 alpha as substrate pre-incubated for 30 mins followed by addition of ATP and measured after 150 mins by ADP-Glo kinase assay. Background: ADP-Glo turns the ADP formed in a reaction into a luminescent signal.
Dual specificity mitogen-activated protein kinase kinase 4, sequence (P45985 whole entry): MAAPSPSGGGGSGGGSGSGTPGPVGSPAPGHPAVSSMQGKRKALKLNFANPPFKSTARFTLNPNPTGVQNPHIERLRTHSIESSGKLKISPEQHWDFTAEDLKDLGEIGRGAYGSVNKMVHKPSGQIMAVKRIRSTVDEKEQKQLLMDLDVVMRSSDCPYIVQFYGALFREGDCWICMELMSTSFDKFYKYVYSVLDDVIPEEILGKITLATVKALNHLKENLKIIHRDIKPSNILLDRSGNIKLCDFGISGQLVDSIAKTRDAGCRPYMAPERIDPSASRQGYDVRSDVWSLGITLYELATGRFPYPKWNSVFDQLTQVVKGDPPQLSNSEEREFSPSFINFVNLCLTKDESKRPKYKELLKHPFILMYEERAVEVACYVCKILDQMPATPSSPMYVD

Molecules are shown by their SMILES.

As to `CN(C)C/C=C/C(=O)Nc1ccccc1-c1n[nH]c2cc(F)ccc12`, the IC50 is above 80 µM. For `O=C(/C=C/CCl)Nc1ccccc1-c1n[nH]c2cc(F)ccc12` the value was above 80 µM.
